Reference: patent US7288760B2, “Conformational real-time atmospheric and environmental characterization sampling apparatus and method” (Battelle Memorial Institute, priority 2005, dated 2007)

Format: in vivo
Conditions: dermal delivery via glass cup bulb, approximately 0.0007 g toluene, ~253 g rat, 10-L glass sampling chamber, quadrupole MS m/z=92, throughput 195 mL/min
Method: FIG. 5a illustrates a system 200 for real-time monitoring and/or analysis of analytes released to a sampling environment 30 in conjunction with animal exposure studies, according to another embodiment of the invention. In Example 4 below, a live animal (e.g., rat) 32 placed in a sampling environment 30 is dosed or treated with a chemical or a drug delivered, e.g., via a dermal cup bulb 34 in conjunction with a precision syringe 36 or other delivery means, including but not limited to, dermal patch, injection, or the like. Environment 30 is monitored in real-time via coupling with manifold 20 at the breathing (clearance) rate of the animal until desired target analytes, metabolites, and/or chemical indicators of interest are detected or quantified in the mass-selective detector or instrument comprising system 10. […]
A custom made ˜3-cc glass cup bulb 34 including a septum (not shown) made of silicon sealant (Dow Corning, Baltimore, Md.) was affixed to the dermis of an anesthetized ˜253 g rat 32 using a veterinary bonding compound (e.g., vet bond®, 3M, St. Paul, Minn.) and allowed to affix for ˜12 to 14 hours. […] Alternatively, breathing rate can be determined using a breathing plethysmograph (e.g., a double chamber plethysmograph, Buxco Electronics, Inc., Wilmington, N.C.). […]

Cc1ccccc1 [toluene]
Time from exposure to detection of the toluene analyte from the respired breath of animal: about 30 minutes
